Data as given in PubChem BioAssay (NCI).
“And” between values parts separate entries of the source, which are not always exact repeats. Equal values may be shown once.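 Results reflect a 48-hour exposure of cells in 96-well plates to compound at five concentrations. Abbreviation: GI50, concentration required for 50% inhibition of growth. TGI denotes the concentration required for complete inhibition of growth.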

What was measured:
Experiment in all cases: growth of human tumour cells (NCI), 48 h
SW-620 colon = test system: SW-620 colon
HS 578T breast = test system: HS 578T breast
OVCAR-5 ovarian = test system: OVCAR-5 ovarian
LOX IMVI melanoma = test system: LOX IMVI melanoma
SK-MEL-28 melanoma = test system: SK-MEL-28 melanoma
EKVX NSCLC = test system: EKVX NSCLC
NCI-H226 lung = test system: NCI-H226 lung
TK-10 renal = test system: TK-10 renal
NCI/ADR-RES ovarian = test system: NCI/ADR-RES ovarian
SK-MEL-5 melanoma = test system: SK-MEL-5 melanoma

SMILES | GI50 (SW-620 colon) [nM] | TGI (SW-620 colon) | GI50 (HS 578T breast) [µM] | TGI (HS 578T breast) [µM] | GI50 (OVCAR-5 ovarian) [nM] | TGI (OVCAR-5 ovarian) | GI50 (LOX IMVI melanoma) [nM] | TGI (LOX IMVI melanoma) | GI50 (SK-MEL-28 melanoma) [nM] | TGI (SK-MEL-28 melanoma) [µM] | GI50 (EKVX NSCLC) [nM] | TGI (EKVX NSCLC) | GI50 (NCI-H226 lung) [µM] | TGI (NCI-H226 lung) [µM] | GI50 (TK-10 renal) [µM] | TGI (TK-10 renal) | GI50 (NCI/ADR-RES ovarian) [nM] | TGI (NCI/ADR-RES ovarian) [µM] | GI50 (SK-MEL-5 melanoma) [nM] | TGI (SK-MEL-5 melanoma)
CCCCN(CCCC)C(=O)[C@H](CC)[C@@H]1CC[C@@H](C)[C@@H]([C@H](C)[C@@H](O)[C@@H](C)C(=O)[C@H](CC)C2O[C@]3(C=C[C@@H](O)[C@]4(CC[C@@](C)([C@H]5CC[C@](O)(CC)[C@H](C)O5)O4)O3)[C@H](C)C[C@@H]2C)O1 (stereo not given in full) | 2750 | 11.1 µM | 2.32 | 7.83 | 1900 | 4.78 µM | 1430 | 2.97 µM | 4210 | 81.1 | 2320 | 8.8 µM | 2.01 | 5.51 | 3.57 | > 100 µM | 2500 | 9.02 | 1730 | 3.15 µM
CCOC(=O)[C@@H](C)C[C@H](Cc1ccccc1)NC(=O)c1csc([C@@H](C[C@H](C(C)C)N(C)C(=O)[C@@H](NC(=O)[C@H]2CCCCN2C)C(C)(C)CC)OC(C)=O)n1 | < 1.67 | > 16.7 µM | < 0.00167 | 2.17 | 3.7 | > 16.7 µM | < 1.67 | 6.08 µM | 1200 | > 16.7 | 2.32 | > 16.7 µM | < 0.00167 | 0.0336 | 0.0418 | > 16.7 µM | 8.91 | – | < 1.67 | 0.0294 µM
C/C(=N\O)c1ccc2ccc3ccccc3c2c1 | – | > 100 µM | – | 80.6 | – | > 100 µM | – | 60.6 µM | – | > 100 | – | > 100 µM | – | 85.6 | – | > 100 µM | – | 85.3 | – | 37 µM
O=C1/C(=C/c2ccc(Cl)c(Cl)c2)CN(C(=O)C(Cl)Cl)C/C1=C\c1ccc(Cl)c(Cl)c1 | 36.4 | 0.196 µM | 0.355 | 3.79 | 204 | 0.545 µM | 36.2 | 0.136 µM | 252 | 0.634 | 223 | 0.757 µM | 0.192 | 0.366 | 0.353 | 1.23 µM | 107 | > 100 | 196 | 0.418 µM
Cc1cc(=O)oc2ccc(OC/C=C3\CCC(=O)O3)cc12 | 3870 | 17.5 µM | 10.8 | 48.9 | 14800 | 31.2 µM | 4940 | 17.2 µM | 11300 | 23.5 | 18700 | 45.6 µM | 17.2 | 57.2 | 1.61 | 9.23 µM | 13700 | 32.4 | 16400 | 32.5 µM
CSc1ccc(C2=C(c3ccccc3)C(=O)OC2)cc1 | 1000 | > 20.1 µM | 0.219 | 1.22 | 5180 | > 100 µM | 385 | 38.7 µM | 6690 | > 100 | 5760 | > 100 µM | 4.3 | 53.3 | 1.49 | 18.4 µM | 350 | > 34.9 | 732 | 3.56 µM
c1ccc(-c2oc(-c3ccccc3)c(CN3CCCCC3)c2CN2CCCCC2)cc1 | 3050 | 16.4 µM | 3.14 | 15.8 | 1820 | 8.85 µM | 3190 | 12.1 µM | 1530 | 3.02 | 2990 | 14.2 µM | 5.19 | 22.7 | 4.58 | 19 µM | 4170 | 15.9 | 1590 | 3.08 µM
CN=C(N)c1ccc(N=C(N)c2ccc(-c3ccc(C(N)=Nc4ccc(C(N)=NC)cc4)cc3)cc2)cc1 | > 100000 | > 100 µM | > 100 | > 100 | > 100000 | > 100 µM | 83000 | > 100 µM | 41800 | > 100 | > 100000 | > 100 µM | 55.9 | > 100 | 35.9 | 97.1 µM | > 100000 | > 100 | 33600 | > 100 µM
C#Cc1cccc(Nc2ncnc3cc(NC(=O)CCl)ccc23)c1 | 832 | 3.08 µM | 3.71 | 14.2 | 1120 | 5.63 µM | 740 | 2.97 µM | 3670 | 7.34 | 2500 | 7.01 µM | 4.72 | 11.6 | 1.86 | 5.98 µM | 4650 | 17.2 | 3370 | 6.71 µM
COc1cc2oc(-c3cccc(C(=O)Nc4ccc(Cl)cc4)c3)cc(=O)c2c(OC)c1OC | 4870 | > 100 µM | 2.95 | > 100 | 1870 | > 100 µM | 413 | > 100 µM | 1840 | 5.89 | 2430 | > 100 µM | 2.24 | 94.8 | 3.22 | > 100 µM | 1810 | > 100 | 1280 | 2.68 µM
CN1CCN(CC(=O)N(C)c2ccc(N=C(c3ccccc3)c3c(O)[nH]c4ccc(C#N)cc34)cc2)CC1 | 1900 | 6.93 µM | 0.0938 | 2.09 | 7110 | 19.2 µM | 1080 | 2.58 µM | 2210 | 4.62 | 5270 | 19.7 µM | 3.19 | 16 | 10.5 | 24.5 µM | 17900 | 60.1 | 1590 | 3.16 µM
COc1cc2cc(Oc3ccc(NC(=O)Nc4cc(C(F)(F)F)cc(C(F)(F)F)c4)cc3)c(C)nc2cc1OCCN1CCOCC1 | 1720 | 7.17 µM | 1.56 | 7 | 2180 | 7.97 µM | 1460 | 5.09 µM | 1800 | 6.94 | 1640 | 6.68 µM | 1.6 | 6.53 | 3.7 | 12.5 µM | 1590 | 7.21 | 885 | 1.66 µM
Cc1ccc(CNc2ccc(Br)cc2)cc1 | – | > 100 µM | – | > 100 | – | > 100 µM | – | > 100 µM | – | > 100 | – | > 100 µM | – | > 100 | – | > 100 µM | – | > 100 | – | 30.8 µM
Clc1nccc2c(-c3csc(-c4c[nH]c5ccc(Br)cc45)n3)c[nH]c12 | 1920 | 3.63 µM | 3.7 | 17.8 | 3140 | 9.88 µM | 1630 | 3.25 µM | 1850 | 4.16 | 3110 | 12.4 µM | 2.4 | 13.8 | 4.16 | 13.4 µM | 2710 | 10.7 | 2610 | 6.42 µM
COc1cccc2c1-c1nc(N)c3c(OC)cccc3c1C2=O | – | > 100 µM | – | 52.3 | – | > 100 µM | – | > 100 µM | – | > 100 | – | > 100 µM | – | > 100 | – | > 100 µM | – | > 100 | – | > 100 µM
CN(C)c1ccc(/C=C\c2ccnc3ccccc23)cc1 | 5780 | > 96 µM | 13 | > 47.9 | 12700 | > 100 µM | 9820 | > 100 µM | 21700 | > 80.5 | 2630 | > 37.9 µM | 2.86 | 48.2 | 14.7 | > 100 µM | 2930 | > 58.5 | 2960 | 9.69 µM
O=C(CS(=O)(=O)c1nc2ccccc2nc1-c1ccccc1)Nc1ccc(F)cc1 | 46600 | > 100 µM | 29.7 | 94.3 | > 100000 | > 100 µM | 36700 | > 100 µM | > 100000 | > 100 | > 100000 | > 100 µM | 85.7 | > 100 | > 100 | > 100 µM | 33700 | > 100 | 23900 | 94.6 µM
Oc1ccc(Br)cc1C=Nc1cccc(C(F)(F)F)c1 | – | > 100 µM | – | 83.3 | – | > 100 µM | – | > 100 µM | – | > 100 | – | > 100 µM | – | 90.6 | – | > 100 µM | – | > 100 | – | > 100 µM
NS(=O)(=O)c1ccc(Nc2cc(-c3ccc(O)c(F)c3)[nH]n2)cc1 | > 25000 | > 25 µM | 7.28 | > 25 | > 25000 | > 25 µM | > 25000 | > 25 µM | > 25000 | > 25 | > 25000 | > 25 µM | > 25 | > 25 | > 25 | > 25 µM | > 25000 | > 25 | 10700 | > 25 µM
COC(=O)NC1C(C)OC(OC2C/C=C(/C)C3C=CC4C(OC5CC(OC6CCC(OC7CC(O)C(OC8CCC(O)C(C)O8)C(C)O7)C(C)O6)C(OC(C)=O)C(C)O5)C(C)CC(C)C4C3(C)/C(O)=C3/C(=O)OC4(CC(C=O)=CC(O)C4/C=C\2C)C3=O)CC1(C)[N+](=O)[O-] (stereo not given) | 212 | 4.74 µM and 1.11 µM | – | 3.76 | 1140 | 4.71 µM and 2.55 µM | 281 | 1.32 µM and 0.808 µM | 31.1 | – | 367 | 5.49 µM and 0.864 µM | – | 2.72 | 0.418 | 6.2 µM and 1.14 µM | – | 26.3 | 200 | 1.95 µM and 0.511 µM
O=C1NC(=S)S/C1=C\c1cn(-c2ccccc2)nc1-c1ccccc1 | 19600 | > 100 µM | 6.03 | 43.6 | 14300 | 29.6 µM | 10000 | 55.4 µM | 9220 | > 100 | 3030 | 23.6 µM | 20.3 | 76.5 | 8 | 85.2 µM | 4800 | > 100 | 3190 | 14.2 µM
